Laboratory results reported in US11192890B2, “FGFR kinase inhibitors and pharmaceutical uses” (AUCKLAND UNISERVICES LIMITED, priority 2017, dated 2021).
Several values for one entry are separate records, joined by “and”; a condition that tells them apart may be missing. Identical values can stand only once. Like-named read-outs stand apart in the source and are kept apart here.

What was measured:
FGFR1 = biological target: T1, FGFR1 (Homo sapiens, UniProt P11362); assay: Isolated enzyme FRET-based Z-Lyte kinase inhibition assay; assay type: biochemical; details: means from 3 independent experiments; read-out: Isolate Enzyme Inhibition IC50, FGFR1
T1 construct: purchased Invitrogen
T1 sequence (P11362 22-822): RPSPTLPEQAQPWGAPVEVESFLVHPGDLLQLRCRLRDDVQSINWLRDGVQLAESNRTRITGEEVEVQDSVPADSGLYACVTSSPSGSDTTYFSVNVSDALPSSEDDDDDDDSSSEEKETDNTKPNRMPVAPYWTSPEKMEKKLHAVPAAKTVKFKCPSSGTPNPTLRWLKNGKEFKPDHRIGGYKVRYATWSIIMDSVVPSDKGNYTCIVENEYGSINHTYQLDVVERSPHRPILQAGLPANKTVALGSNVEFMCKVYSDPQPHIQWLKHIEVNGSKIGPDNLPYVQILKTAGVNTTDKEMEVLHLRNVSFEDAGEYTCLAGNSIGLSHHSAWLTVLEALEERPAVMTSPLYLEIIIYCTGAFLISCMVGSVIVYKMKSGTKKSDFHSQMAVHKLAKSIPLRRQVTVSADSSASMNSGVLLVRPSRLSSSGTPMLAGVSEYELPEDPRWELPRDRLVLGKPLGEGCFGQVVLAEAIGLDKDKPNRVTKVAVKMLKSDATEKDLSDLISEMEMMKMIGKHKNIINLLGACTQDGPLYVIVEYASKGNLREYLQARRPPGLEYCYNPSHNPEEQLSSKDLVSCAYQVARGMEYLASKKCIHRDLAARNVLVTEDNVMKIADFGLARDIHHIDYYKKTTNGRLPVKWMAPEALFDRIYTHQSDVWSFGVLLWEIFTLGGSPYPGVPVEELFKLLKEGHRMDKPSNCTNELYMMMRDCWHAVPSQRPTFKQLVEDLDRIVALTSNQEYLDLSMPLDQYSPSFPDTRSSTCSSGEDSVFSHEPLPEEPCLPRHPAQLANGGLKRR
Description: (§1) FGFR1-4 and the Z-Lyte Kinase Assay Kit were purchased from Invitrogen. The concentration gradients from 5.1×10^−11 to 1.0×10^−6 mol/L were used for all the test compounds. The experiments were performed according to the instructions of the manufacturer.
(§2) FGFR1-4 isolated enzyme activity was determined using the FRET-based Z-Lyte kinase inhibition assay. The data are the means from 3 independent experiments.

FGFR2 = biological target: T2, FGFR2 (Homo sapiens, UniProt P21802); assay: as above; assay type: biochemical; details: means from 3 independent experiments; read-out: Isolate Enzyme Inhibition IC50, FGFR2
T2 construct: purchased Invitrogen
T2 sequence (P21802 22-821): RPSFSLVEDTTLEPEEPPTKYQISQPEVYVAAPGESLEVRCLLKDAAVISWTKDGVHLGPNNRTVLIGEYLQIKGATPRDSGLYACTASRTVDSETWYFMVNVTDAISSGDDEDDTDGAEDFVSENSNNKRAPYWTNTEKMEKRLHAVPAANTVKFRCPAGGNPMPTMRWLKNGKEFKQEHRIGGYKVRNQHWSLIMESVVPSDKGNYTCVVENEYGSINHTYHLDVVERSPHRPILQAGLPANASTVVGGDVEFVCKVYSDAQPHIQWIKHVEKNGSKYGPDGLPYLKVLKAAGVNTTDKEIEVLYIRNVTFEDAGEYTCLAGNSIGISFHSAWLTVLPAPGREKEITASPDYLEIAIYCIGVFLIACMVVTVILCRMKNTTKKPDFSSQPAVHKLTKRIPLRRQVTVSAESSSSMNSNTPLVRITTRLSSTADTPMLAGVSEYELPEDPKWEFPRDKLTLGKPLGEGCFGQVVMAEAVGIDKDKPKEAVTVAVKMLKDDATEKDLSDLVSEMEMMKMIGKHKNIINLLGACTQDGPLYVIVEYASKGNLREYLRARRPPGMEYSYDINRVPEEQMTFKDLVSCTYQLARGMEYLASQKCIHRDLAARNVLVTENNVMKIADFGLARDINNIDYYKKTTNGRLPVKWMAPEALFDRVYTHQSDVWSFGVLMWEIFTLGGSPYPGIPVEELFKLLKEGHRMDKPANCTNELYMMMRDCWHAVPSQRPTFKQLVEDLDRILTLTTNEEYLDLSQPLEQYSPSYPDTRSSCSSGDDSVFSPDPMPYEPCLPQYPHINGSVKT
Description: as §1, §2

FGFR3 = biological target: T3, FGFR3 (Homo sapiens, UniProt P22607); assay: as above; assay type: biochemical; details: means from 3 independent experiments; read-out: Isolate Enzyme Inhibition IC50, FGFR3
T3 construct: purchased Invitrogen
T3 sequence (P22607 23-806): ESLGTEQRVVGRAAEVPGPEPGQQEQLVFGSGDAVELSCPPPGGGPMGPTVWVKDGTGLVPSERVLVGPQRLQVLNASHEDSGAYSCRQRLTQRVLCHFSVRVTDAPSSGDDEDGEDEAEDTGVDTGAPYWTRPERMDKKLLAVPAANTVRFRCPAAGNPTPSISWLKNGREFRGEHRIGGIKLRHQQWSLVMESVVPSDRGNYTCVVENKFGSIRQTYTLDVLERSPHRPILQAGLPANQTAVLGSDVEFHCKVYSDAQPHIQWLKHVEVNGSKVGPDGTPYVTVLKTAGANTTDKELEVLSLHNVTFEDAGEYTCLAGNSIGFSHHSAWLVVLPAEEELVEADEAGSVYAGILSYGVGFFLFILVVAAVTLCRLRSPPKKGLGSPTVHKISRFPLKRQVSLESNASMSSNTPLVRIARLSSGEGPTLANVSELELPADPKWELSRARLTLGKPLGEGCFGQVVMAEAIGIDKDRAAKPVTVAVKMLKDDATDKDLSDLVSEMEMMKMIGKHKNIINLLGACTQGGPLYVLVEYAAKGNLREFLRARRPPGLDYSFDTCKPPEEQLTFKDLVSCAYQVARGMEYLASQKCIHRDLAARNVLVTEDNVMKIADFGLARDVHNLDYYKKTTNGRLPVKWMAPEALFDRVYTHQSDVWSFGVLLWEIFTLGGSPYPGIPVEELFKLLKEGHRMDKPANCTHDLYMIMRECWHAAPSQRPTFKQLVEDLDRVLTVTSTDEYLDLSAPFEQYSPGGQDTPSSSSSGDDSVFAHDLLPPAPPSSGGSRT
Description: as §1, §2

FGFR4 = biological target: T4, FGFR4 (Homo sapiens, UniProt P22455); assay: as above; assay type: biochemical; details: means from 3 independent experiments; read-out: Isolate Enzyme Inhibition IC50, FGFR4
T4 construct: purchased Invitrogen
T4 sequence (P22455 22-802): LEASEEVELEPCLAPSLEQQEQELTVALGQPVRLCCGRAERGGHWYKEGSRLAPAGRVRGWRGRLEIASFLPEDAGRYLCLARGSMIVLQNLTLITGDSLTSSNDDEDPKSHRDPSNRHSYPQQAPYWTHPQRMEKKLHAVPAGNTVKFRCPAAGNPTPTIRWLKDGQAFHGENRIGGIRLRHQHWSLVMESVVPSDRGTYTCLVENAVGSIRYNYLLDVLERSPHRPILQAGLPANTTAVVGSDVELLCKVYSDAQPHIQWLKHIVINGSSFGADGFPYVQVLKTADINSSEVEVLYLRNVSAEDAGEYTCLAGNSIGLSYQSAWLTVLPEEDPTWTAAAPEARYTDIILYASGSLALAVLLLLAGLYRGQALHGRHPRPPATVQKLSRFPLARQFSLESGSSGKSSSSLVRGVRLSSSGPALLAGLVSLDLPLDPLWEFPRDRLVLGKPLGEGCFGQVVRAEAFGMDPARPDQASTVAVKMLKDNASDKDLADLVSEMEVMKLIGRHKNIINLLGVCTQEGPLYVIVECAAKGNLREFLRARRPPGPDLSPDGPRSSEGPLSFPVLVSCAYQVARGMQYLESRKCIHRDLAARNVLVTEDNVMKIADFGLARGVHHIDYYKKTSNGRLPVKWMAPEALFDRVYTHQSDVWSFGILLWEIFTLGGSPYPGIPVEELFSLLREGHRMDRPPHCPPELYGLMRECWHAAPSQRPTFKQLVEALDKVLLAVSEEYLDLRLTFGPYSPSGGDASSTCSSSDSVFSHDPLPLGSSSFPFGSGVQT
Description: as §1, §2

[1] = test system: FGFR1-amplified H520 non-small cell lung cancer cells; assay: Cell proliferation assay (SRB); assay type: cell-based; details: Homo sapiens, NCI-H520, 168 h, read-out: Cellular Anti-proliferative IC50, H520
[2] = test system: FGFR2-amplified SUM52 breast cancer cells; assay: Cell proliferation assay (SRB); assay type: cell-based; details: SUM52, 120 h, read-out: Cellular Anti-proliferative IC50, SUM52, 5 days drug exposure
[3] = test system: FGFR4-amplified Hep3B hepatocellular carcinoma cells; assay: Cell proliferation assay (SRB); assay type: cell-based; details: Homo sapiens, Hep3B; read-out: Cellular Anti-proliferative IC50, Hep3B
[4] = test system: FGFR1 in H520 cells (phospho-ERK1/2); assay: Drug washout Western blot assay, H520 cells; assay type: cell-based; details: for exposure concentration for irreversible inhibition (fully covalently bind the target) in cells: H520 (FGFR1), 30 minute exposure; for inhibition of phosphorylation of ERK1/2, no washout / phospho-ERK1/2 after extensive drug washout: 30 min; for inhibition of phosphorylation of ERK1/2, no washout: then FGF-stimulation; for phospho-ERK1/2 after extensive drug washout: washout prior to FGF-stimulation; for reversible or irreversible inhibition of FGFR1 in cells: with and without washout
[5] = test system: FGFR2 in SUM52 cells (phospho-ERK1/2); assay: Drug washout Western blot assay, SUM52 cells; assay type: cell-based; details: for exposure concentration for irreversible inhibition (fully covalently bind the target) in cells: SUM52 (FGFR2), 30 minute exposure; for inhibition of phosphorylation of ERK1/2, no washout / phospho-ERK1/2 after extensive drug washout: 30 min; for inhibition of phosphorylation of ERK1/2, no washout: then FGF-stimulation; for phospho-ERK1/2 after extensive drug washout: washout prior to FGF-stimulation
Description: Cells were seeded on the day prior to drug treatment (1 million cells/well; 6-well plate).
Drug stocks were prepared in media using 1 mM or 10 mM DMSO stock solutions. Media was aspirated from each well and replaced with 2 ml of drug-free media for control wells or 2 ml of diluted drug for treated wells. Cells were exposed to drug for 30 min. Recombinant FGF (50 ng/well) was added to each well 15 minutes prior to the end of the drug exposure and protein was extracted as below.
Cells were exposed to drug for 30 min as above. Media was aspirated and each well was washed with 5 ml drug-free media. The wash media was aspirated and replaced with 2 ml drug-free media and cells incubated for a further 30 minutes, after which the wash protocol was repeated. Cells were incubated for a further 90 minutes in drug-free media. Recombinant FGF (50 ng/well) was added to each well 15 minutes prior to the end of the drug-free incubation and protein was extracted as below.
Cell lysates were prepared in 250 μL of RIPA lysis buffer containing protease inhibitor (1:100). After incubation on ice (30 min) and centrifugation (13,000 rpm, 5 min, 4° C.) the supernatants containing the proteins were stored (−20° C.) until required. Bicinchoninic acid (BCA) assay was used to determine the protein concentration of individual cell lysate samples.

[6] = test system: FGFR3 in SW780 cells (phospho-ERK1/2); assay: Drug washout Western blot assay, SW780 cells; assay type: cell-based; details: for exposure concentration for irreversible inhibition (fully covalently bind the target) in cells: SW780 (FGFR3), 30 minute exposure; for inhibition of phosphorylation of ERK1/2, no washout / phospho-ERK1/2 after extensive drug washout / reversible or irreversible inhibition of FGFR3 in cells: SW780; for inhibition of phosphorylation of ERK1/2, no washout / phospho-ERK1/2 after extensive drug washout: 30 min; for inhibition of phosphorylation of ERK1/2, no washout: then FGF-stimulation; for phospho-ERK1/2 after extensive drug washout: washout prior to FGF-stimulation; for reversible or irreversible inhibition of FGFR3 in cells: with and without washout
[7] = biological target: T5, recombinant FGFR1 (C584S) kinase domain (Homo sapiens, UniProt P11362, C584S); assay: FGFR1 (C584S) covalent binding protein mass spectrometry assay; details: protein:inhibitor 1:10, 37° C.
T5 construct: made in house; host or cells: pETDuet vector, IPTG induction in Terrific Broth (bacterial)
T5 sequence (P11362 with tags, fused parts or gaps C584S): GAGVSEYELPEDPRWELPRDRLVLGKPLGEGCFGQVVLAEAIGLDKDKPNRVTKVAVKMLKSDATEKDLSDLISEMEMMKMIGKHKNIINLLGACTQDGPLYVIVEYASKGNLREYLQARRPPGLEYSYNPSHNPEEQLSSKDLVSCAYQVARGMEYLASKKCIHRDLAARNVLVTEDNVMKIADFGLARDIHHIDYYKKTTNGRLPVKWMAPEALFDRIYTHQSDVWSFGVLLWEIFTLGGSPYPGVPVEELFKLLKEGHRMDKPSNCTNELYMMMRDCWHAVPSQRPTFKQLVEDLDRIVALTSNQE
Description: The previously cloned C488A/C584S FGFR1 construct was modified by site-directed mutagenesis to provide a gene encoding the C584S FGFR1 kinase domain with the cysteine at amino acid C488 reinstated. Expression and purification of this protein followed the protocol described above but with the addition of 10% glycerol to all buffers and a change of buffer pH to a value of 8.5. Protein for mass spectrometry was concentrated to ˜40 mg/ml and was mixed 1:1 (v/v) with glycerol, and then frozen at −20° C. or flash cooled in liquid nitrogen and stored at −80° C. until needed.
Protein samples were buffer exchanged to remove glycerol (the final buffer comprised 20 mM Tris-HCl pH 8.5, 10% (v/v) glycerol, 20 mM NaCl, 5 mM EDTA, 2 mM TCEP) and were mixed with each inhibitor at 1:10 molar ratio (protein:inhibitor). Final protein concentration was 20 μM. […] Samples were mixed with 90 μL of 0.1% formic acid to quench the reaction followed by flash cooling in liquid nitrogen. Samples were stored at −80° C. until needed. All experiments were carried out in triplicate.
Samples were subjected to liquid chromatography mass spectrometry (LC-MS) to show mass changes attributable to irreversible inhibition. Mass spectrometry experiments were performed at the University of Auckland Mass Spectrometry Center using an electropspray QSTAR® XL ESI quadrupole Time-of-Flight (QToF) MS system (Applied Biosystems) operated in positive ionization mode. The instrument was calibrated using Renin Substrate Standard (SCIEX), over the m/z range 100-2000. Protein/inhibitor samples were thawed and 2 μL volumes injected into a liquid chromatography (LC) BIOshell™ A400 Protein C4 HPLC column (10 cm×2.1 mm, 3.4 μm) attached to the mass spectrometer. […] Following elution, samples were directly injected into the mass spectrometer for separation and mass analysis. Mass spectrometry data were processed and analysed using the PeakView™ 2.1 software and the Bio Tool Kit plug-in (SCIEX) and covered an m/z range of 330-1600. Deconvolution calculations allowed visualisation of intact mass protein peaks and allowed peak area measurement to assess the percentage of protein covalently modified by each inhibitor at each time point. Data was plotted using GraphPad Prism 7 (GraphPad).

[8] = test system: FGFR3-amplified SW780 bladder cancer cells; assay: Cell proliferation assay (SRB); details: Homo sapiens, SW780, 120 h
panel of 456 kinases = assay: Biochemical kinase selectivity screening (DiscoveRx KINOMEscan); assay type: binding
SW780 cells = assay: Oxic and anoxic anti-proliferative activity of the prodrugs; assay type: cell-based; details: Homo sapiens, SW780; oxic conditions; read-out: Cellular Anti-proliferative IC50, SW780, Oxic
[9] = Pulse radiolysis of prodrugs; assay type: physicochemical
H520 cells = assay: Oxic and anoxic anti-proliferative activity of the prodrugs; details: read-out: Cellular Anti-proliferative IC50, H520, Oxic; oxic conditions
SUM52 cells = assay: as above; details: read-out: Cellular Anti-proliferative IC50, SUM52, Oxic; oxic conditions
[10] = read-out: Cellular Anti-proliferative IC50, SW780
[11] = H520, 2 hours exposure, 100, 300 and 600 nM

Structure (SMILES)	IC50 (FGFR1)	IC50 (FGFR2)	IC50 (FGFR3)	IC50 (FGFR4)	IC50 [1]	IC50 [2]	IC50 [3]	exposure concentration for irreversible inhibition (fully covalently bind the target) in cells [4]	inhibition of phosphorylation of ERK1/2, no washout ([4]; H520, 100 nM)	phospho-ERK1/2 after extensive drug washout ([4]; H520, 100 nM)	phospho-ERK1/2 after extensive drug washout ([4]; H520, 1000 nM)	exposure concentration for irreversible inhibition (fully covalently bind the target) in cells [5]	inhibition of phosphorylation of ERK1/2, no washout ([5]; SUM52, 100 nM)	phospho-ERK1/2 after extensive drug washout ([5]; SUM52, 100 nM)	phospho-ERK1/2 after extensive drug washout ([5]; SUM52, 1000 nM)	exposure concentration for irreversible inhibition (fully covalently bind the target) in cells [6]	inhibition of phosphorylation of ERK1/2, no washout ([6]; 100 nM)	phospho-ERK1/2 after extensive drug washout ([6]; 100 nM)	phospho-ERK1/2 after extensive drug washout ([6]; 1000 nM)	% Conversion to FGFR1 (C584S) covalent adduct after 120 minutes incubation [7]	also measured
COc1cc(OC)c(Cl)c(N2Cc3cnc(NC4CCCCC4)nc3N([C@H]3CCN(C(=O)/C=C/CN(C)C)C3)C2=O)c1Cl [Compound 105, (S,E)-7-(cyclohexylamino)-3-(2,6-dichloro-3,5-dimethoxyphenyl)-1-(1-(4-(dimethylamino)but-2-enoyl)pyrrolidin-3-yl)-3,4-dihydropyrimido[4,5-d]pyrimidin-2(1H)-one]	1.2 nM	16 nM	33 nM	729 nM	68 nM	2.1 nM	80 nM	1000 nM	complete inhibition	partially inhibited	essential full inhibition	1000 nM	complete inhibition	remained inhibited	essential full inhibition	1000 nM	complete inhibition	fully restored	essential full inhibition	8%	IC50 [8, 10]: 4 nM
COc1cc(OC)c(Cl)c(N2Cc3cnc(Nc4ccccc4)nc3N([C@H]3CCN(C(=O)/C=C/CN(C)C)C3)C2=O)c1Cl [Compound 106, (S,E)-3-(2,6-dichloro-3,5-dimethoxyphenyl)-1-(1-(4-(dimethylamino)but-2-enoyl)pyrrolidin-3-yl)-7-(phenylamino)-3,4-dihydropyrimido[4,5-d]pyrimidin-2(1H)-one]	1.1 nM	26 nM	17 nM	< 100 nM and 94 nM	11 nM	0.5 nM	5.5 nM	100 nM	complete inhibition	fully inhibited	essential full inhibition	100 nM	complete inhibition	fully inhibited	essential full inhibition	100 nM	complete inhibition	fully inhibited	essential full inhibition	11%	reversible or irreversible inhibition of FGFR1 in cells ([4]; H520, 30 min exposure, 100 nM): potent irreversible inhibitor; reversible or irreversible inhibition of FGFR2 in cells ([5]; SUM52, 30 min exposure, 100 nM, with and without washout): potent irreversible inhibitor; reversible or irreversible inhibition of FGFR3 in cells ([6]; 30 min exposure, 100 nM): potent irreversible inhibitor; reversible or irreversible inhibition of FGFR3 in cells ([6]; 120 minutes exposure, 100 nM): irreversible; IC50 [8, 10]: 5 nM
COc1cc(OC)c(Cl)c(N2Cc3cnc(Nc4ccc(F)cc4)nc3N(C3CCN(C(=O)/C=C/CN(C)C)CC3)C2=O)c1Cl [Compound 120, (E)-3-(2,6-dichloro-3,5-dimethoxyphenyl)-1-(1-(4-(dimethylamino)but-2-enoyl)piperidin-4-yl)-7-((4-fluorophenyl)amino)-3,4-dihydropyrimido[4,5-d]pyrimidin-2(1H)-one]					8.7 nM	0.8 nM															share of the non-mutant kinases studied with Percent Control <35 (panel of 456 kinases; 1 uM, 33/403 kinases): 8.2%; selectivity for the FGFR family (panel of 456 kinases; panel of 456 kinases): excellent selectivity; S(35) selectivity score (panel of 456 kinases; set concentration of 1 uM): 0.082; reversible or irreversible inhibition of FGFR1 in cells [4, 11]: potent, irreversible inhibition; IC50 ([8]; read-out: Cellular Anti-proliferative IC50, SW780, 5 days drug exposure): 16 nM
CNc1ncc2c(n1)N([C@H]1CCN(C(=O)/C=C/C[N+](C)(C)Cc3c([N+](=O)[O-])ncn3C)C1)C(=O)N(c1c(Cl)c(OC)cc(OC)c1Cl)C2.[Br-] [Compound 200, (S,E)-4-(3-(3-(2,6-dichloro-3,5-dimethoxyphenyl)-7-(methylamino)-2-oxo-3,4-dihydropyrimido[4,5-d]pyrimidin-1(2H)-yl)pyrrolidin-1-yl)-N,N-dimethyl-N-((1-methyl-4-nitro-1H-imidazol-5-yl)methyl)-4-oxobut-2-en-1-aminium bromide]																					reversible or irreversible inhibition of FGFR1 in cells [4, 11]: reversible inhibitor; concentration required to suppress FGFR1 signalling through phospho-ERK1/2 ([4]; H520, 2 hours exposure, tested at 100, 300 and 600 nM): 300 nM; IC50 (SW780 cells): 2640 nM; first order rate of fragmentation kfrag [9]: 32 s⁻¹; melting point: 195 to 198 °C; IC50 (H520 cells): 3660 nM; IC50 (SUM52 cells): 229 nM
